Patent US20250228835A1, “PYRIDINYLOXYPYRIDINES AND RELATED COMPOUNDS AND THEIR USE IN TREATING MEDICAL CONDITIONS” (Rectify Pharmaceuticals, Inc., priority 2024, published 2025)

Key:
ABCA4 P1380L = target: T1, ABCA4 P1380L (Homo sapiens, UniProt P78363, P1380L); assay: A4 correction dose-response assay: ABCA4 P1380L HiBit protein expression; assay type: cell-based; details: HEK-293 cells stably expressing HiBit-tagged ABCA4 P1380L; 24 h treatment; top concentration 30 μM; read-out: ABCA4 P1380L EC50, Emax
T1 construct: expressed in transfected cells
T1 sequence (P78363 whole entry P1380L): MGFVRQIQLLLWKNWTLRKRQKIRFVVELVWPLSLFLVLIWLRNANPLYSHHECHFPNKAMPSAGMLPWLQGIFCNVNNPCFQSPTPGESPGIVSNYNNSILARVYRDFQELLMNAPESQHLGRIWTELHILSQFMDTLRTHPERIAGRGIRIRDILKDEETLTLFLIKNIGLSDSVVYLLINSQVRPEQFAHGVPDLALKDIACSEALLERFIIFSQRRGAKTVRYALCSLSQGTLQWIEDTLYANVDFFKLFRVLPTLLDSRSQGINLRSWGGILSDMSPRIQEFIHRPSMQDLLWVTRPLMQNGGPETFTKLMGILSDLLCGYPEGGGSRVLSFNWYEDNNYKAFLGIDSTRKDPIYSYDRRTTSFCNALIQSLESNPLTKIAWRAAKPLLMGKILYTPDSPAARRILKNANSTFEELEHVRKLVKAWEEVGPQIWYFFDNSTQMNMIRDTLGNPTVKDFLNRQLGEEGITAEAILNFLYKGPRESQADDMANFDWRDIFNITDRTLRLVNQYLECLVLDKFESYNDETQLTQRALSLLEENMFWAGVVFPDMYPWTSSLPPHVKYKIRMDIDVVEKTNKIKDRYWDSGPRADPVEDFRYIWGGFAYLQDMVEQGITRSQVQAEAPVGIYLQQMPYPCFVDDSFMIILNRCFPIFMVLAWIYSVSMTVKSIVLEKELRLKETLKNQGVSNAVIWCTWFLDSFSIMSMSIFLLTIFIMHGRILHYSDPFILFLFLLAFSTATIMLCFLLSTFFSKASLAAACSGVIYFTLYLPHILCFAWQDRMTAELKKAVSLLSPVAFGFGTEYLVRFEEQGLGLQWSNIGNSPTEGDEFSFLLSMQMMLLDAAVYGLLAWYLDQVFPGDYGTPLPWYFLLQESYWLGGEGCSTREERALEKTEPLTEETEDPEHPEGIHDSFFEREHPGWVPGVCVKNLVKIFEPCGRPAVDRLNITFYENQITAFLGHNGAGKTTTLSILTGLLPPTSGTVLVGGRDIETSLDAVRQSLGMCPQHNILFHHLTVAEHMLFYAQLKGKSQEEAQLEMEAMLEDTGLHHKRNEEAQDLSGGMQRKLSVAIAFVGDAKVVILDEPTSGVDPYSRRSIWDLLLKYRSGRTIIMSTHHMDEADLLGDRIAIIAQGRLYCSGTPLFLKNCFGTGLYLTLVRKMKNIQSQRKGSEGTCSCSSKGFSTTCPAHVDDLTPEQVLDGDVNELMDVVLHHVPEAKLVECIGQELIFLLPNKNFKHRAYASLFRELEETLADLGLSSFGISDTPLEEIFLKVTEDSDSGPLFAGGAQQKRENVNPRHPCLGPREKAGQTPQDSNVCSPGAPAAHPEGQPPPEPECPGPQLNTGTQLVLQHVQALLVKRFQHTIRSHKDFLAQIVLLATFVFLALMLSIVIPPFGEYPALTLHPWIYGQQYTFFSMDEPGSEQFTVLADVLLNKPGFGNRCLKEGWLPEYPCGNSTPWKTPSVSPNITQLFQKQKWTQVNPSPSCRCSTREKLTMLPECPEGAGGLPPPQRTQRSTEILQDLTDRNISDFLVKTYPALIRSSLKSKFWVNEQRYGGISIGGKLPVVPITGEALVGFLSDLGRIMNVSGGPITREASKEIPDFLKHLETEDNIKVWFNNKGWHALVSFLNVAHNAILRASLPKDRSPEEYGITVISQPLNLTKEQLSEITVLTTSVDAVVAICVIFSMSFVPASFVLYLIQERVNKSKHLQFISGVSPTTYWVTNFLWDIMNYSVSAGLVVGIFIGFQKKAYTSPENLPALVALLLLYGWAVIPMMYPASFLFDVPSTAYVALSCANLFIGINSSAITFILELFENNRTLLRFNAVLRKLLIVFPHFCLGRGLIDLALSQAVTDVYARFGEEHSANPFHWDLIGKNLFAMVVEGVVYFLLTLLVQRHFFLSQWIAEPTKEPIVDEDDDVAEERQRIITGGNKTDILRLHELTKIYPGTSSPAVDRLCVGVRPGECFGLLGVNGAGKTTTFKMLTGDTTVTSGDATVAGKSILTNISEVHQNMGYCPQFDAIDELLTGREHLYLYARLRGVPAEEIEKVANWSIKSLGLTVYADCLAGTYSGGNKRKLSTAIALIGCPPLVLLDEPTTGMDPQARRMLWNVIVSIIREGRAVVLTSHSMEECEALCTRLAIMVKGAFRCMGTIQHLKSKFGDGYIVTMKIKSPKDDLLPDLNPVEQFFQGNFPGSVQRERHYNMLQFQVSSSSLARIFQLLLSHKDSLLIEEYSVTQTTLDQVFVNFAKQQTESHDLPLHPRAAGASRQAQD
Description: Exemplary compounds were evaluated in an A4 correction dose-response assay.
To assess activity against ABCA4 P1380L, the compounds were screened in an assay measuring protein expression, using cells transfected with cDNA encoding HiBit-tagged ABCA4 P1380L. Here we describe an assay for measuring the expression of the P1380L variant of human ABCA4 (henceforth referred to as ABCA4 P1380L) and the use of this assay to measure the efficacy of compounds to increase the expression of ABCA4 P1380L. The assay was designed to characterize the efficacy and potency of compounds to increase the expression of ABCA4 P1380L by calculating an Emax and EC50 value. […] (5% CO2, humidified). […] After the four-hour incubation period, 60 nL of DMSO solutions are transferred to the assay plate.
Dose response curves include eleven doses with the top final concentration at 30 μM in 0.3% DMSO. Liquid handling is performed with ECHO 550 Acoustic Liquid Handler (Labcyte). After addition of compound treatment, cells are incubated for 24 hours at 37° C. (5% CO2, humidified). After the 24-hour treatment, plates are allowed to equilibrate to room temperature for 10 minutes. Using Dragonfly Automated Liquid Handler (TTP LabTech), 20 μl of HiBit lytic assay reagent (Promega, product #N3040), which is prepared according to manufacturer's instructions, is added to each well. The plates are rotated at room temperature for 2 minutes and incubated for 1 hour at 25° C. before luminescent signal is acquired using an EnVision Multimode Plate Reader (PerkinElmer).

ABCC6 WT = target: T2, ABCC6 WT (Homo sapiens, UniProt O95255); assay: ABCC6 WT assay: HiBit protein expression; assay type: cell-based; details: HEK-293 cells transiently expressing HiBit-tagged ABCC6 WT; 24 h treatment; top concentration 20 μM; read-out: ABCC6 WT EC50, Emax
T2 construct: expressed in transfected cells; host or cells: HEK-293 (transient, Lipofectamine 2000)
T2 sequence (O95255 whole entry): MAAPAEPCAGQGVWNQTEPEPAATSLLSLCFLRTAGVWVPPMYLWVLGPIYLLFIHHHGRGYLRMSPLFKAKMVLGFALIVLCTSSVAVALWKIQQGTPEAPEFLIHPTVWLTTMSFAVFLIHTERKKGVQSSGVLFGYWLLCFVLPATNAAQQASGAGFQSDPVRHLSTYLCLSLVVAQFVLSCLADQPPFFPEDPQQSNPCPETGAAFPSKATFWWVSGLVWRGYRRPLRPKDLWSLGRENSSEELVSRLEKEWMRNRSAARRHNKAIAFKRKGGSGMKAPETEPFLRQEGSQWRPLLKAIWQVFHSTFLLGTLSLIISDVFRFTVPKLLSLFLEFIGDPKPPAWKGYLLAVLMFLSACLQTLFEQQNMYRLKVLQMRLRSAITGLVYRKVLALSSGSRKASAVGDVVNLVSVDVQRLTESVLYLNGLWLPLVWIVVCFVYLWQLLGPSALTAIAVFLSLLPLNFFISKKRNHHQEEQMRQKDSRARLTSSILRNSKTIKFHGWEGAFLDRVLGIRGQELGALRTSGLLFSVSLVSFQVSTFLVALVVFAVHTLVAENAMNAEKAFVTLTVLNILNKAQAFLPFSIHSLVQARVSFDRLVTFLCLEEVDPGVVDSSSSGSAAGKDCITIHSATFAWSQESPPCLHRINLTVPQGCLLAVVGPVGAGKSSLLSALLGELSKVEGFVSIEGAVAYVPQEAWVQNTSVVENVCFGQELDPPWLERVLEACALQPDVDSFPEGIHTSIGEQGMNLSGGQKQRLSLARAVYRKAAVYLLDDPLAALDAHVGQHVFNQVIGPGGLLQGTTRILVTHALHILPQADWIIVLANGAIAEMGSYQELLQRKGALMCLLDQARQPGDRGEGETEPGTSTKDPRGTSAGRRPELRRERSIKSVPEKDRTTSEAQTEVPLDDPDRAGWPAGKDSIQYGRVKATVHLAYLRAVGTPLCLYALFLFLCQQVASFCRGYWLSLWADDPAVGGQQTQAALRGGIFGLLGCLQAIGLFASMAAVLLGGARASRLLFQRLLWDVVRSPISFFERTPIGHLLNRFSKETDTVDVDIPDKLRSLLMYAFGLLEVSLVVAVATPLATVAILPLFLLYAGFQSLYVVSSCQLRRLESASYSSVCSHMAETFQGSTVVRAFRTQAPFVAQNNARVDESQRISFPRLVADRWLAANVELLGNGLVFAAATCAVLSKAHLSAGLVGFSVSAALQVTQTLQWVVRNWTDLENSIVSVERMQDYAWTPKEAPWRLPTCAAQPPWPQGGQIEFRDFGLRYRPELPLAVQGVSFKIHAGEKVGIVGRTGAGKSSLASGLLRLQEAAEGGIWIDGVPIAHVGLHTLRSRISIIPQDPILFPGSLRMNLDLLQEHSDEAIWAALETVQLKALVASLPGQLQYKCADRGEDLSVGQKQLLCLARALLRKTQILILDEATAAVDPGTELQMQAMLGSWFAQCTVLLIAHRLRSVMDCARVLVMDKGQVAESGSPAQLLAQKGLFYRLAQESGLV
From the text: To assess activity against ABCC6, compounds were screened in an assay measuring protein expression, using cells transfected with cDNA encoding HiBit-tagged ABCC6 wild-type.
Described here is an assay for measuring the expression of the wild type of human ABCC6 (henceforth referred to as ABCC6 WT) and the use of this assay to measure the efficacy of compounds to increase the expression of ABCC6 WT. The assay was designed to characterize the efficacy and potency of compounds to increase the expression of ABCC6 WT by calculating an Emax and EC50 value. HEK-293 cells transiently expressing ABCC6 WT (HEK-293/ACC6 WT) were used for this assay and were cultured at 37° C. (5% CO2, humidified) in Dulbecco's Modified Eagle Medium (DMEM, Gibco product #11965-092) supplemented with 10% fetal bovine serum. For the assay, HEK-293 cells were transfected with […]/10 cm plate of cDNA encoding HiBit-tagged ABCC6 wild-type using Lipofectamine 2000 (Thermo Fisher, product #11668019). Twenty-four hours after transfection, the HEK-293/ACC6 WT cells were seeded in white/opaque 384-well plates (PerkinElmer, cat. No. 6007688) at 10,000 cells/well in 20 μl growth medium and allowed to settle for 4 hours at 37° C. (5% CO2, humidified). Compound serial dilutions are prepared in growth medium as ten times (10×) the final concentration and using a dilution factor of 2. After the four-hour incubation period, 2.2 μL of the 10× dilutions are transferred to the assay plate.
Dose response curves include ten doses with the top final concentration at 20 μM in 0.15% DMSO. Liquid handling is performed with an Integra mini96-tip head (INTEGRA). After addition of compound treatment, cells are incubated for 24 hours at 37° C. (5% CO2, humidified). After the 24-hour treatment, plates are allowed to equilibrate for 15 minutes at room temperature. Using Integra mini-96, 20 μl of HiBit lytic assay reagent (Promega, product #N3040), which is prepared according to manufacturer's instructions, is added to each well. The plates are rotated at room temperature for 10 minutes and luminescent signal is acquired using an EnVision Multimode Plate Reader (PerkinElmer).
Results are presented below in Table 4 for ABCC6 WT.

Row | SMILES | EC50 (ABCA4 P1380L) | EC50 (ABCC6 WT)
1 | Cc1nc(N2CC3(COC3)C2)nc(C)c1Oc1nc(-c2cncc(C#N)c2)ccc1NS(C)(=O)=O [Compound I-160] | > 25 µM | 1 to 10 µM
2 | Cc1cc(C2CC2)nc(C2CC2)c1Oc1nc(-c2cncc(C#N)c2)ccc1NS(C)(=O)=O [Compound I-161] | < 1 µM | < 1 µM
3 | Cc1nc(C2CC2)cc(C2CC2)c1Oc1nc(-c2cncc(C#N)c2)ccc1NS(C)(=O)=O [Compound I-162] | < 1 µM | < 1 µM
4 | Cc1cc(C(F)(F)F)nc(C2CC2)c1Oc1nc(-c2cncc(C#N)c2)ccc1NS(C)(=O)=O [Compound I-163] | < 25 µM | < 1 µM
5 | Cc1nc(C)c(Oc2nc(-c3cncc(Cl)c3)ccc2NS(C)(=O)=O)c(C2CC2)n1 [Compound I-164] | 1 to 10 µM | < 25 µM
6 | Cc1cc(C(F)(F)F)nc(C2CC2)c1Oc1nc(-c2cncc(C#N)c2)ccc1N=S(C)(C)=O [Compound I-286] | > 25 µM | < 1 µM
7 | Cc1cc(C(F)(F)F)nc(C2CC2)c1Oc1nc(-c2cncc(C#N)c2)ccc1S(=N)(=O)C1CC1 (stereo not drawn) [Compound I-287] | > 25 µM | ≥ 25 µM
8 | Cc1cc(C(F)F)nc(C2CC2)c1Oc1nc(-c2cncc(C#N)c2)ccc1S(=O)(=O)NC1CC1 [Compound I-288] | 1 to 10 µM | < 1 µM
9 | CNS(=O)(=O)c1ccc(-c2cncc(C#N)c2)nc1Oc1c(C)cc(C(F)F)nc1C1CC1 [Compound I-289] | > 25 µM | < 1 µM
10 | Cc1cc(C(F)(F)F)nc(C2CC2)c1Oc1nc(-c2cncc(C#N)c2)ccc1S(=O)(=O)N1CCOCC1 [Compound I-290] | > 25 µM | ≥ 25 µM
11 | Cc1cc(C(F)(F)F)nc(C2CC2)c1Oc1nc(-c2cncc(C#N)c2)ccc1S(=O)(=O)N(C)C [Compound I-291] | < 25 µM | 1 to 10 µM
12 | Cc1nc(C(F)(F)F)nc(C2CC2)c1Oc1nc(-c2cncc(C#N)c2)ccc1S(=O)(=O)NC1CC1 [Compound I-292] | 1 to 10 µM | < 1 µM
13 | CNS(=O)(=O)c1ccc(-c2cncc(C#N)c2)nc1Oc1c(C)cc(C(F)(F)F)nc1C1CC1 [Compound I-293] | < 25 µM | 1 to 10 µM
14 | Cc1cc(C(F)(F)F)nc(C2CC2)c1Oc1nc(-c2cncc(C#N)c2)ccc1S(=O)(=O)Nc1cccnc1 [Compound I-294] | < 25 µM | < 1 µM
15 | Cc1cc(C(F)(F)F)nc(C2CC2)c1Oc1nc(-c2cccc(C#N)c2)ccc1S(=N)(=O)C1CC1 (stereo not drawn) [Compound I-295] | < 25 µM | < 1 µM
16 | Cc1cc(C(F)(F)F)nc(C2CC2)c1Oc1nc(-c2cncc(C#N)c2)ccc1S(=N)(=O)c1cccnn1 (stereo not drawn) [Compound I-296] | < 1 µM | 1 to 10 µM
17 | Cc1cc(C(F)(F)F)nc(C2CC2)c1Oc1nc(-c2cncc(C#N)c2)ccc1S(=N)(=O)c1cnccn1 (stereo not drawn) [Compound I-297] | 1 to 10 µM | 1 to 10 µM
18 | CNS(=O)(=O)c1ccc(-c2cncc(C#N)c2)nc1Oc1c(C)cc(C2CC2)nc1C1CC1 [Compound I-298] | > 25 µM | 1 to 10 µM

Row | SMILES | EC50 (ABCA4 P1380L) | EC50 (ABCC6 WT)
19 | Cc1sc(C2CC2)nc1Oc1nc(-c2cncc(C#N)c2)ccc1NS(C)(=O)=O [Compound I-299] | < 1 µM | < 1 µM
20 | Cc1nc(Oc2nc(-c3cncc(C#N)c3)ccc2NS(C)(=O)=O)c(C2CC2)s1 [Compound I-300] | < 25 µM | < 1 µM
21 | Cc1cc(C(F)(F)F)nc(C2CC2)c1Oc1nc(-c2cncc(C#N)c2)ccc1S(=N)(=O)C1CCOCC1 (stereo not drawn) [Compound I-301] | < 25 µM | 1 to 10 µM
22 | Cc1cc(C(F)(F)F)nc(C2CC2)c1Oc1nc(-c2cncc(C#N)c2)ccc1S(=N)(=O)c1ccccn1 (stereo not drawn) [Compound I-302] | > 25 µM | 10 to 25 µM
23 | Cc1nc(C(F)(F)F)nc(C2CC2)c1Oc1nc(-c2cncc(C#N)c2)ccc1S(=N)(=O)C1CC1 (stereo not drawn) [Compound I-303] | > 25 µM | 1 to 10 µM
24 | Cc1cc(C(F)(F)F)nc(C2CC2)c1Oc1nc(-c2cncc(C#N)c2)ccc1S(=N)(=O)c1cccnc1 (stereo not drawn) [Compound I-304] | 1 to 10 µM | 1 to 10 µM
25 | Cc1cc(C(F)(F)F)nc(C2CC2)c1Oc1nc(-c2cncc(C#N)c2)ccc1S(=O)(=O)NC1COC1 [Compound I-305] | > 25 µM | < 1 µM
26 | Cc1cc(C(F)(F)F)nc(C2CC2)c1Oc1nc(-c2cncc(C#N)c2)ccc1S(=O)(=O)NC1CCOCC1 [Compound I-306] | < 25 µM | < 1 µM
27 | Cc1cc(C)c(Oc2nc(-c3c[nH]c(=O)c(C#N)c3)ccc2NS(C)(=O)=O)c(C)n1 [Compound I-307] | > 25 µM | 1 to 10 µM
28 | CNS(=O)(=O)c1ccc(-c2cncc(C#N)c2)nc1Oc1nc(C2CC2)sc1C [Compound I-308] | > 25 µM | 1 to 10 µM
29 | Cc1nc(C(F)(F)F)nc(C2CC2)c1Oc1nc(-c2cncc(C#N)c2)ccc1S(=O)(=O)Nc1cnn(C)c1 [Compound I-309] | > 25 µM | 1 to 10 µM
30 | Cc1nc(C(F)(F)F)nc(C2CC2)c1Oc1nc(-c2cncc(C#N)c2)ccc1S(=O)(=O)Nc1cccnc1 [Compound I-310] | > 25 µM | < 1 µM
31 | Cc1cc(C)[n+]([O-])c(C)c1Oc1nc(-c2cncc(C#N)c2)ccc1NS(C)(=O)=O [Compound I-311] | 1 to 10 µM | 1 to 10 µM
32 | CNS(=O)(=O)c1ccc(-c2cncc(C#N)c2)nc1Oc1nc(C)sc1C1CC1 [Compound I-312] | > 25 µM | < 25 µM
33 | CNS(=O)(=O)c1ccc(-c2cncc(C#N)c2)nc1Oc1c(C)nc(C(F)F)nc1C1CC1 [Compound I-313] | 10 to 25 µM | 1 to 10 µM
34 | Cc1nc(C(F)F)nc(C2CC2)c1Oc1nc(-c2cncc(C#N)c2)ccc1S(=O)(=O)NC1CC1 [Compound I-314] | > 25 µM | ≥ 25 µM
35 | CNS(=O)(=O)c1ccc(-c2cncc(C#N)c2)nc1Oc1c(C)nc(C(F)(F)F)nc1C1CC1 [Compound I-315] | > 25 µM | 1 to 10 µM
36 | Cc1cc(C)c(Oc2nc(-c3cccc(C#N)c3)ccc2S(=N)(=O)C2CC2)c(C)n1 (stereo not drawn) [Compound I-316] | 1 to 10 µM | 1 to 10 µM
